Experimental data as given in US9115122B2, “Non-ATP dependent inhibitors of extracellular signal-regulated kinase (ERK)” (UNIVERSITY OF MARYLAND, BALTIMORE, priority 2012, dated 2015).

How the values were obtained:
ERK2 = ERK2 (Rattus norvegicus (Rat), UniProt P63086); test: Binding of DRS compound to ERK2 (FIG. 10)
A375 melanoma cells [1] = test: Proliferation of A375 melanoma cells (Example 3); assay type: cell-based
Excerpt: We examined the effects of these compounds on proliferation of A375 melanoma cells with BRaf mutations that require ERK activation for survival.
Moreover, 76.3 and TMZ also appeared to delay tumor growth in mice harboring A375 tumors indicative of prolonged survival (FIG. 13B).

A375 melanoma cells [2] = test: Cell proliferation, fluorescent Cell Titer Blue Assay (Example 1); assay type: cell-based; details: Homo sapiens, A-375; 48 hours
Method: (§1) FIG. 5. Dose dependent inhibition of cancer cell proliferation in vitro by SF-3-026 and analogs. A375 (closes circles), RPM17951 (closed squares), HeLa (open circles), or Jurkat (open squares) cells were treated for 48 hours with indicated concentration of (a) SF-3-026, (b) SF-2-027, (c) SF-2-029, or (d) SF-2-030 and cell proliferation was assessed by the fluorescent Cell Titer Blue Assay. The data were reproduced in 3 separate experiments.
(§2) Cells were seeded at 25,000 cells/well in 96-well plate and cultured overnight. Cells were treated for 24 hours with various concentrations of compounds and cell viability or caspase 3/7 activity were measured according to manufacturer's instructions using the fluorescent Cell Titer Blue Assay (Promega) or luminescent Caspase 3/7 Glo Assay (Promega).
(§3) It was next determined whether inhibition of AP-1 proteins by SF-3-026 and analogs affected the proliferation of cancer cells driven by mutations that constitutively activate the ERK1/2 pathway. For these experiments, A375 and RPMI7951 melanoma cells, which have a valine to glutamate mutation on residue 600 in BRaf that causes constitutive ERK1/2 activation, were chosen. Moreover, RPMI7951 cells are resistant to clinically used BRaf inhibitors due to overexpression of MAP3K8 (the gene encoding COT/Tp12) that re-activates ERK1/2 signaling. Both melanoma cells lines were treated with varying doses of SF-3-026 or analogs and cell viability was compared to HeLa cervical carcinoma and Jurkat T-cell leukemia cells, which are p53 defective but contain no known activating mutations in the ERK1/2 pathway.

[3] = tested on: HeLa cervical carcinoma cells; test: as above; assay type: cell-based; details: Homo sapiens, 48 hours
Method: as §1, §2, §3

[4] = tested on: Jurkat T-cell leukemia cells; test: as above; assay type: cell-based; details: Homo sapiens, 48 hours
Method: as §1, §2, §3

RPMI7951 melanoma cells = test: as above; assay type: cell-based; details: Homo sapiens, RPMI-7951; 48 hours
Method: as §1, §2, §3

AP-1 promoter = AP-1 promoter luciferase assay, EGF-stimulated HeLa cells (Example 1); assay type: cell-based; details: Homo sapiens, EGF stimulation, 4 hours, read-out: IC50 inhibition of the AP-1 promoter
Method: FIG. 4. Compound SF-3-026 and analogs inhibit SRE and AP-1 transcription factor function. (a) HeLa cells were transfected with constructs containing SRE or AP-1 promoters driving luciferase expression and then stimulated with EGF in the presence or absence of SF-3-026 for 4 hours followed by measurements of luciferase activity. Cells treated with U0126 were used as a positive inhibitor control. (b and c) HeLa cells were prepared and treated as in (a) with the indicated concentrations of SF-3-026 or analogs for 4 hours followed by the measurement of luciferase activity regulated by the SRE (b) or AP-1 (c) promoters. Data in (b and c) were normalized to EGF-only treatment and represent the mean and standard deviation from three independent experiments. (d) Compound SF-3-026 and analogs inhibit MEK1-induced AP-1 transcription factor function. […]
HeLa cells were seeded in 24-well plates (40,000 cells/well) and incubated 18 hours to achieve ˜60-70% confluent. […] The luciferase activity in the cell extracts was determined with a Dual Luciferase Assay System (Promega) according to the manufacturer's instructions. Luciferase activities were monitored with a Lumat LB 9507 luminometer (Berthold Technology) and data were normalized to the amount of protein in each sample. […]

[5] = tested on: MEK1-induced AP-1 promoter activity; test: AP-1 promoter luciferase assay, HeLa cells expressing active MEK1 mutant; assay type: cell-based; details: Homo sapiens, 4 hours, read-out: IC50 inhibition of MEK1-induced AP-1 promoter activity
Method: FIG. 4. Compound SF-3-026 and analogs inhibit SRE and AP-1 transcription factor function. (a) HeLa cells were transfected with constructs containing SRE or AP-1 promoters driving luciferase expression and then stimulated with EGF in the presence or absence of SF-3-026 for 4 hours followed by measurements of luciferase activity. Cells treated with U0126 were used as a positive inhibitor control. (b and c) HeLa cells were prepared and treated as in (a) with the indicated concentrations of SF-3-026 or analogs for 4 hours followed by the measurement of luciferase activity regulated by the SRE (b) or AP-1 (c) promoters. Data in (b and c) were normalized to EGF-only treatment and represent the mean and standard deviation from three independent experiments. (d) Compound SF-3-026 and analogs inhibit MEK1-induced AP-1 transcription factor function. HeLa cells were transfected with the AP-1 promoter construct and a constitutively active MEK1 mutant in the presence (10 μM) or absence of the MEK1/2 inhibitor (U0126) or an ATP-competitive ERK inhibitor (ERKi) for 4 hours followed by measurements of luciferase activity. (e) Cells expressing the AP-1 promoter and an active MEK-1 construct were treated with the indicated concentrations of SF-3-026 or analogs for 4 hours followed by the measurement of luciferase activity. Data in (e) were normalized to active MEK1-only treatment and represent the mean and standard deviation from three independent experiments.
HeLa cells were seeded in 24-well plates (40,000 cells/well) and incubated 18 hours to achieve ˜60-70% confluent. Cells were transfected with activator protein-1 (pAP1(PMA)-TA-Luc; Clontech) or the serum response element (pGL4.33-SRE; Promega) luciferase reporter plasmids (250 ng/well) using Lipofectamine™ (Invitrogen). After 16 hours, cells were pre-treated with varying amounts of compounds as indicated for 20 minutes, followed by stimulation with EGF (25 ng/mL) for 4.5 hr. In some experiments, cells transfected with the pAP1(PMA)-TA-Luc promoter and a constitutively active MEK1 mutant cDNA were treated with varying amounts of compounds during the last 4 hours of incubation. The luciferase activity in the cell extracts was determined with a Dual Luciferase Assay System (Promega) according to the manufacturer's instructions. Luciferase activities were monitored with a Lumat LB 9507 luminometer (Berthold Technology) and data were normalized to the amount of protein in each sample. […]

A375 melanoma cells [6] = test: Caspase 3/7 Glo Assay; assay type: cell-based; details: varying doses, 24 hours
Method: FIG. 6. SF-3-030 induces growth inhibition and apoptosis in A375 melanoma cells. A375 were seeded in a 96-well plate and incubated for 18-20 hours. Cells were treated with varying concentrations of SF-3-030 and allowed to incubate for an additional 24 hours. Cell viability was measured using the fluorescent Cell Titer Blue Assay and caspase 3/7 activity was measured using the luminescent Caspase 3/7 Glo Assay. Data represent the average of two experiments performed in duplicate.
as §2
(§4) To test whether the inhibition of cell proliferation was due to an apoptotic response, A375 and HeLa cells were treated with varying doses of SF-3-030 and cell viability along with caspase 3/7 activity was measured.

HeLa cells = test: Caspase 3/7 Glo Assay; assay type: cell-based; details: varying doses
Method: as §2, §4

[7] = tested on: c-Fos, Fra1, and FosB expression; test: Immunoblot of EGF-induced c-Fos, Fra1 and FosB expression in HeLa cells; assay type: cell-based; details: EGF 25 ng/mL
Method: FIG. 3. EGF-mediated induction of AP-1 proteins is inhibited by SF-3-026 and SF-3-030. (a) HeLa cells were treated for 10, 30, or 60 min. with EGF (25 ng/mL) in the presence of 50 μM SF-3-026 or 10 μM U0126. Protein lysates were immunoblotted for c-Fos, Fra1, FosB and FosB2. Phosphorylated ERK1/2 is not affected by SF-3-026 and α-tubulin expression is shown for a protein loading control. (b) Protein lysates from HeLa cells treated for 30 min. with EGF in the absence or presence of 10, 25, 50, or 100 μM of SF-3-026 or SF-3-030 were immunoblotted for c-Fos, Fra1, FosB, FosB2, as well as phosphorylated ERK1/2 and MEK1/2. Total ERK2 and α-tubulin expression are shown for protein loading controls. Data are representative of three independent experiments.
Analysis of protein expression levels, activity, and cell proliferation were done as previously described. […] Proteins were separated by SDS-PAGE, analyzed by immunoblotting, and detected using enhanced chemiluminescence (ECL, GE Healthcare, United Kingdom).
The reported half-life for c-Fos is ˜10 minutes and growth factor-mediated stabilization of c-Fos protein expression can be observed within 30-60 minutes, whereas stabilization of Fra1 protein is delayed due to AP-1 regulation of the Fra1 promoter. Thus, growth factor-mediated induction of c-Fos, Fra1, and FosB expression was evaluated following treatment with SF-3-026. […]

Sequence of ERK2 (P63086 whole entry): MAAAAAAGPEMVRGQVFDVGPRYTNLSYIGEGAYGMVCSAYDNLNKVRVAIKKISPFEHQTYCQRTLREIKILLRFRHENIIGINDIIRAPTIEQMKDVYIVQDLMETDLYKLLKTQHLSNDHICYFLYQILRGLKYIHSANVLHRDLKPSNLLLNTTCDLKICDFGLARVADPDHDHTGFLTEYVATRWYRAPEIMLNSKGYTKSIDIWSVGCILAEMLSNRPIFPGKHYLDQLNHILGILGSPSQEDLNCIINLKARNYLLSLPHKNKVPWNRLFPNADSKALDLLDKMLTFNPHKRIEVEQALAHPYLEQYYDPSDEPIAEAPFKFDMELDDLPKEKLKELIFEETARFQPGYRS

| affinity (site 1 on ERK2) (ERK2) | GI50 (A375 melanoma cells [2]) [µM] | GI50 [3] [µM] | GI50 [4] [µM] | GI50 (RPMI7951 melanoma cells) [µM] | IC50 (AP-1 promoter) [µM] | IC50 [5] [µM] | Compound | effect on A375 cell proliferation (A375 melanoma cells [1]) | caspase 3/7 activity in A375 cells (A375 melanoma cells [6]) | caspase 3/7 activity in HeLa cells (HeLa cells) | inhibition of EGF-induced c-Fos, Fra1, and FosB expression [7] |
| --- | --- | --- | --- | --- | --- | --- | --- | --- | --- | --- | --- |
| high nM affinity | – | – | – | – | – | – | CCOc1ccc(/C=C2\SC(=O)N(CCNc3nc(Cl)nc(Cl)n3)C2=O)cc1 [SF-2-054] | selective inhibition of A375 cells | – | – | – |
| – | 7.1 | 29 | > 50 | 4.6 | < 10 | 5 to 10 | O=S1(=O)C=CC(OS(=O)(=O)c2ccc3c(c2)CC=CC3)C1 (centres unmarked) [SF-3-030] | – | dose dependent increase | did not show increased caspase 3/7 activity | higher potency |
